In patent US9096544B2, “Therapeutic compounds” (Wayne State University, priority 2009, dated 2015):

Tests used:
FFMA-AML cells [1] = assay: Annexin V-FITC binding by flow cytometry, FFMA-AML cells; assay type: cell-based, human; details: 1 μM, varying times
Description: FIG. 3 illustrates the induction of apoptosis and cell death as assessed using Annexin V-FITC binding together with propidium iodide (PI) staining. FFMA-AML and TF(vSRC) cells were exposed to 1 μM 3-Cl-AHPC or compound 16. A) Apoptosis in FFMA-AML and TF(vSRC) cells following 24 and 48 h ARR exposure, respectively. The plots show the distribution of classes of fluorescence intensity versus cell number. The bottom left quadrant represents live cells (both annexin V-FITC and PI negative); the bottom right quadrant represents early apoptotic cells (annexin V-FITC positive but PI negative); and the top right quadrant represents late apoptotic cells (both annexin V-FITC and PI positive). B) Percentage of early apopotic Annexin V-positive cells at the indicated times. […] (p values of <0.05, <0.01 and <0.001 respectively, as determined by the t test).
(§1) Apoptosis of cells was determined by (1) acridine orange and ethidium bromide-staining to assess cells with nuclear fragmentation and chromatin condensation as previously described (Farhana L. et al., Cancer Res. 2006; 65:4909-4917) and (2) flow cytometry assessing Annexin V-FITC binding together with propidium iodide staining (Annexin V-FITC apoptosis Detection kit 1, BD Biosciences, San Diego, Calif.). Data acquisition was done on a FACS Calibur flow cytometer (BD) and analyzed with CellQuest software. […]

FFMA-AML cells [2] = assay: Test B: apoptosis of FFMA-AML cells (acridine orange/ethidium bromide, nuclear fragmentation); assay type: cell-based, human; details: for EC50: Homo sapiens, nuclear fragmentation, FIG. 2A/B (96 h), read-out: ED50 of apoptosis induction
Description: (§2) FIG. 2 illustrates apoptosis induction in FFMA-AML and TF(v-SRC) cells by 3-Cl-AHPC and compound 16. Cells were seeded at 1×10^4 cells/ml, grown for 24 h and then exposed to 1 μM compound 16 or 3-Cl-AHPC A) at various concentrations of the compound for 96 h and B) for increasing times of exposure. C) Induction of apoptosis by 3-Cl-AHPC, all-trans-retinoic acid, 9-cis-retinoic acid and TTNPB in FFMA-AML and TF(v-SRC) cells. The percentage of apoptotic cells was determined using acridine orange and ethidium bromide staining to determine nuclear fragmentation as described in the general biochemical and pharmacological materials and methods. The error bars represent the mean of three separate determinations +/− the standard deviation (SD).
FFMA-AML cells were obtained from a patient with a diagnosis of AML as indicated by the immunophenotyping described in Table 1. This patient was refractory to the chemotherapy regimens consisting of cytosine arabinoside given with daunomycin as well as high-dose cytosine arabinoside. Peripheral blood samples were obtained from the patient utilizing a Wayne State University Institutional Review Board approved protocol and the leukemic blasts were isolated utilizing Ficoll hypaque. […]
as §1

MiaPaCa-2 cells = assay: Test I: growth inhibition of MiaPaCa-2 cells (MTT); assay type: cell-based; details: 1 μM
Description: (§3) Pancreatic cancer cell lines (COLO357, PANC-1, Capan-2, AsPc-1 cells and MiaPaCa-2 cells obtained from American Type Culture Collection; ATCC, Rockville, Md.) were treated with 1 μM 3-Cl-AHPC and compound 16 for various times. Apoptosis in cells were analyzed by flow cytometry using Annexin V-FITC binding together with propidium iodide (PI) staining (Annexin V-FITC apoptosis Detection Kit 1, BD Biosciences, San Diego, Calif.). Data acquisition was done on a FACS Calibur flow cytometer (BD) and analyzed with CellQuest software (BD Biosciences). 3-Cl-AHPC and compound 16 mediated inhibition of cell growth were determined by 3-(4,5-dimethylthiazol-2-yl)-2,5-diphenyltetrazolium bromide (MTT) assay. The cells were seeded on 96-well plates at a density of 4×10^4 cells/well in a volume of 200 μl culture medium. 1 μM AHP3 and 3-Cl-AHPC in DMSO (final concentration 0.1%) were added to the cells for various times. […] After discarding the medium, MTT precipitates were solubilized with 200 μl DMSO and the plates read on a BioTeK Synergy HT (BioTeK Instrument Inc., Vermont) at an absorbance 570 nm. […] The spheroids were stained with acridine orange/ethidium bromide staining and immediately visualized and photographed with fluorescence microscope (OLYMPUS CKX41). […] Then spheroids were visualized and photographed with a fluorescence microscope.

PANC-1 cells [3] = assay: Test I: growth inhibition of PANC-1 cells (MTT); assay type: cell-based; details: 1 μM
Description: as §3

PANC-1 cells [4] = assay: Test I: apoptosis of PANC-1 pancreatic cancer cells (Annexin V-FITC/PI); assay type: cell-based; details: 1 μM, 48 h
Description: as §3

Capan-2 cells = assay: Test I: apoptosis of Capan-2 pancreatic cancer cells (Annexin V-FITC/PI); assay type: cell-based; details: 1 μM, 48 h
Description: as §3

AsPc-1 cells = assay: Test I: growth inhibition of AsPc-1 cells (MTT); assay type: cell-based; details: 1 μM
Description: as §3

TF(v-SRC) cells = assay: Test B: apoptosis of TF(v-SRC) cells (acridine orange/ethidium bromide, nuclear fragmentation); assay type: cell-based; details: nuclear fragmentation, FIG. 2A/B (96 h), read-out: ED50 of apoptosis induction
Description: as §2
FFMA-AML cells were obtained from a patient with a diagnosis of AML as indicated by the immunophenotyping described in Table 1. This patient was refractory to the chemotherapy regimens consisting of cytosine arabinoside given with daunomycin as well as high-dose cytosine arabinoside. Peripheral blood samples were obtained from the patient utilizing a Wayne State University Institutional Review Board approved protocol and the leukemic blasts were isolated utilizing Ficoll hypaque. The isolated leukemic cells (representing >99% of the cells) were subsequently cultured in RPMI 1640 supplemented with 10% heat-inactivated fetal bovine serum (FBS) and growth factors interleukin 3 (IL-3), granulocyte-colony stimulating factor (G-CSF), granulocyte/macrophage colony-stimulating factor (GM-CSF), and stem cell factor (SCF) as we have previously reported, and then the cells were maintained in 10% FBS and gentamycin (Zhang Y. et al., Blood, 2003; […]:3743-3752). The TF(v-SRC) leukemia cells have been previously described (Black J. H. et al., Leukemia. 2003; 17:155-159). TF(v-SRC) cells were grown in RPMI 1640 supplemented with 10% heat inactivated FBS.
Apoptosis of cells was determined by (1) acridine orange and ethidium bromide-staining to assess cells with nuclear fragmentation and chromatin condensation as previously described (Farhana L. et al., Cancer Res. 2006; 65:4909-4917) and (2) flow cytometry assessing Annexin V-FITC binding together with propidium iodide staining (Annexin V-FITC apoptosis Detection kit 1, BD Biosciences, San Diego, Calif.). Data acquisition was done on a FACS Calibur flow cytometer (BD) and analyzed with CellQuest software.
Cells were grown in the presence and absence of increasing concentrations of either 3-Cl-AHPC or compound 16 and for varying periods of time. There was a progressive increase in 3-Cl-AHPC- and compound 16-mediated apoptosis in both FFMA-AML and TF(v-SRC) cells with time and with increasing concentrations of the compounds. […] We therefore tested the sensitivity of FFMA-AML and TF(v-SRC) cells to apoptosis induction by tRA, 9-cis RA, and TTNPB (FIG. 2C).

SMILES: O=C(O)C=Cc1ccc(-c2ccc(O)c(C34CC5CC(CC(C5)C3)C4)c2)c(Cl)c1 [Compound 3-Cl-AHPC, 4-[3-(1-adamantyl)-4-hydroxyphenyl]-3-chlorocinnamic acid, reference compound]
- annexin V-FITC-positive cells (FFMA-AML cells [1]): progressive increase in annexin V-FITC-positive cells with time
- cells displaying apoptosis (FFMA-AML cells [2]; FIG. 2C, retinoid values over that noted with the vehicle): 80%
- EC50 (FFMA-AML cells [2]): 370 nM
- inhibition of growth (MiaPaCa-2 cells): significant inhibition of growth
- inhibition of growth (PANC-1 cells [3]): significant inhibition of growth
- cells in which induction of apoptosis was noted (PANC-1 cells [4]): 50%
- cells in which induction of apoptosis was noted (Capan-2 cells): 50%
- inhibition of growth (AsPc-1 cells): significant inhibition of growth
- EC50 (TF(v-SRC) cells): 750 nM

SMILES: O=C(O)/C=C/c1cnc(-c2ccc(O)c(C34CC5CC(CC(C5)C3)C4)c2)nc1 [Compound 16, (E)-3-[2-(3-(1-Adamantyl)-4-hydroxyphenyl)-5-pyrimidinyl]-2-propenoic acid]
- annexin V-FITC-positive cells (FFMA-AML cells [1]): progressive increase in annexin V-FITC-positive cells with time
- EC50 (FFMA-AML cells [2]): 320 nM
- inhibition of growth (MiaPaCa-2 cells): significant inhibition of growth
- inhibition of growth (PANC-1 cells [3]): significant inhibition of growth
- cells in which induction of apoptosis was noted (PANC-1 cells [4]): 50%
- cells in which induction of apoptosis was noted (Capan-2 cells): 50%
- inhibition of growth (AsPc-1 cells): significant inhibition of growth
- EC50 (TF(v-SRC) cells): 750 nM
